Target: T1, NLRP3 (Homo sapiens, UniProt Q96P20)
T1 construct: endogenous in cells; host or cells: THP-1 (human monocyte, PMA-differentiated, LPS-primed, nigericin-stimulated)
Assay: IC50 of NLRP3 inhibitors in reducing IL-1β secretion by THP-1 cells (PMA, LPS, nigericin; ELISA)
Format: cell-based
Conditions: compound + nigericin 1 h
Method: Test Example 1 Experiment on Detection of IC50 of NLRP3 Inhibitors in Reducing the Level of IL-1β Secretion by THP-1 Cells
In this experiment, we use the human monocyte THP-1 to study the inhibitory activity of NLRP3 inhibitor on the secretion of IL-Iβ by cells. Human THP-1 cells are treated with crotonol-12-tetradecanoate-13-acetate (PMA) to differentiate into mature macrophage models. Then, according to the two stages of inflammasome formation in cells (assembly and activation), the cells are stimulated with lipopolysaccharide (LPS) and nigericin in turn, ultimately promoting the extracellular release of IL-1β by THP-1 cells. The first stage of inflammasome formation involves stimulating cells with LPS (lipopolysaccharide), an agonist of the Toll-like receptor TLR4, to activate the expression of the inflammasome-associated proteins NLRP3, caspase 1, and pro-IL-1β, a precursor of IL-1β. The second stage of inflammasome formation involves the addition of the potassium ion carrier nigericin, which causes a series of membrane potential changes in THP-1 cells, destroys the cell membrane structure, causes the efflux of cellular potassium ions, further stimulates the oligomerization of NLRP3 monomers to form NLRP3 oligomers, and begins to recruit ASC and pro-caspase-1 to assemble the NLRP3 inflammasome complex containing a large amount of pro-caspase-1. The pro-caspase-1 on the activated NLRP3 inflammasome is enzymatically self-activated to form a large amount of active caspase-1. The activated caspase-1 further enzymatically promotes the conversion of pro-IL-1β into mature IL-1β that can be secreted.
(1) Cell suspensions were collected. The cells were centrifuged at 1000 rpm for 4 min, the supernatant was discarded, the cells were resuspended with 1 mL of test medium, and then the cell culture medium was gently pipetted up and down with a pipette and its tip to break up the cell aggregates. After counting the cells, the THP-1 cells were resuspended with complete RPMI medium 1640 containing PMA and seeded into 96-well plates and cultured in a 37° C., 5% CO2 incubator for 72 h.
(2) The culture medium was taken out from each well with an automatic plate washer dispenser EL406 and each well was rinsed twice with PBS. To each well, 96 μL of RPMI 1640 medium containing LPS was added. The cells were cultured in a 37° C., 5% CO2 incubator for 4 h.
(3) To each well, 2 μL of the compound and 2 μL of nigericin sodium salt were added, and the final compound concentration selected was 5000 nM, 1000 nM, 200 nM, 40 nM, 8 nM, 1.6 nM, 0.32 nM, 0 nM, respectively. The cells were cultured in a 37° C., 5% CO2 incubator for 1 h.
(4) An appropriate amount of supernatant was taken out, diluted 100 times, and the content of IL-1β in the supernatant was detected using Human IL-1 beta Valukine ELISA kit.

T1 sequence (Q96P20 whole entry): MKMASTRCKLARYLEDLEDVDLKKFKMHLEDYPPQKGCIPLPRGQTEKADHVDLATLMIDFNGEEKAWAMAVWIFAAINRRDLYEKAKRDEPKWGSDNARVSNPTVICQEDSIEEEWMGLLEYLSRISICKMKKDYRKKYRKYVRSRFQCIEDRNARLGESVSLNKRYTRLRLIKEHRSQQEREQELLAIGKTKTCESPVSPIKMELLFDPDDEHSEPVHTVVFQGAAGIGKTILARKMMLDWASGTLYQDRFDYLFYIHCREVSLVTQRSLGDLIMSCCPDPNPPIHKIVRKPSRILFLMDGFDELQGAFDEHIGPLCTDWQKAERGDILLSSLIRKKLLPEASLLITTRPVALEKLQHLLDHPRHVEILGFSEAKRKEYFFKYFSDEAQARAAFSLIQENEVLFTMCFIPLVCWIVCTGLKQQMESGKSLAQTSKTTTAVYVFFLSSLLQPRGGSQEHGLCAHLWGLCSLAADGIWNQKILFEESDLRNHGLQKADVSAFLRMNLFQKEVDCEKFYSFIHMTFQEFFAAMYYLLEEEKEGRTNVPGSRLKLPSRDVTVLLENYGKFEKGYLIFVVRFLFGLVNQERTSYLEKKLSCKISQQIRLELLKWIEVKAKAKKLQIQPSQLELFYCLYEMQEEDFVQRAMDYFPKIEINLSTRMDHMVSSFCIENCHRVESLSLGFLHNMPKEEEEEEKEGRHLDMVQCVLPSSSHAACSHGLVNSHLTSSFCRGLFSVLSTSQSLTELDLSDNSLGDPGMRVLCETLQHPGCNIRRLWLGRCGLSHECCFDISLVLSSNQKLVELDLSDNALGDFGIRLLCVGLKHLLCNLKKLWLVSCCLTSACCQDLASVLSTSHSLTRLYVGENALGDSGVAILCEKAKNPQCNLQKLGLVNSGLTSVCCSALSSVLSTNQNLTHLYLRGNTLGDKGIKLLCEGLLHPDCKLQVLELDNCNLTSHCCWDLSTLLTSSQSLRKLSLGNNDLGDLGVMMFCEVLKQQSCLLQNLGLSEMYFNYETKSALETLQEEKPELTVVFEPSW

| SMILES | IC50 |
| --- | --- |
| CC(C)(O)CNc1nnc(-c2ccc3sccc3c2O)c2ccc(C#N)cc12 [Compound 018, 4-((2-hydroxy-2-methylpropyl)amino)-1-(4-hydroxybenzo[b]thiophen-5-yl) phthalazine-6-carbonitrile] | 50 nM |
| Cn1cc(-c2ccc3c(-c4ccc(Cl)cc4O)nnc(NCC(C)(C)O)c3c2)cn1 [Compound 004, 5-chloro-2-(4-((2-hydroxy-2-methylpropyl)amino)-6-(1-methyl-1H-pyrazol-4-yl)phthalazin-1-yl)phenol] | 63 nM |
| CC#Cc1ccc2c(-c3c(C)cc(Cl)cc3O)nnc(NCC(C)(C)O)c2c1 [Compound 024-1] | 108 nM |
| CC(C(=O)N1CCCC1)N1CCC[C@@H](Nc2nnc(-c3ccc(Cl)cc3O)c3ccncc23)C1 (stereo partly drawn) [Compound 042] | 14 nM |
| Cc1cc(Cl)cc(O)c1-c1nnc(NCC(C)(C)O)c2cc(-c3cnn(C)c3)ccc12 [Compound 038] | 42 nM |
| C[C@H](C(N)=O)N1CCC[C@@H](Nc2nnc(-c3ccc(Cl)cc3O)c3ccncc23)C1 [Compound 017, (R)-2-((R)-3-((1-(4-chloro-2-hydroxyphenyl)pyrido[3,4-d]pyridazin-4-yl)amino)piperidin-1-yl) propionamide] | 17 nM |
| COC(=O)N1CCC[C@@H](Nc2nnc(-c3ccc(Cl)cc3O)c3ccncc23)C1 [Compound 010, Methyl (R)-3-((1-(4-chloro-2-hydroxyphenyl)pyrido[3,4-d]pyridazin-4-yl)amino)piperidin-1-carboxylate] | 16 nM |
| Cc1cc(Cl)cc(O)c1-c1nnc(NCC(C)(C)O)c2cc(-c3cnn(C4CC4)c3)ccc12 [Compound 039, 5-chloro-2-(6-(1-cyclopropyl-1H-pyrazol-4-yl)-4-((2-hydroxy-2-methylpropyl)amino)phthalazin-1-yl)-3-methylphenol] | 73 nM |
| Cc1cc(Cl)cc(O)c1-c1nnc(NCC(C)(C)O)c2cc(-c3ccn(C)n3)ccc12 [Compound 040, 5-chloro-2-(4-((2-hydroxy-2-methylpropyl)amino)-6-(1-methyl-1H-pyrazol-3-yl)phthalazin-1-yl)-3-methylphenol] | 54 nM |
| CC(C)(O)CNc1nnc(-c2ccc3sc(F)cc3c2O)c2ccc(C#N)cc12 [Compound 019, 1-(2-fluoro-4-hydroxybenzo[b]thiophen-5-yl)-4-((2-hydroxy-2-methylpropyl)amino) phthalazine-6-carbonitrile] | 111 nM |
| Cc1cc(C(F)(F)F)cc(O)c1-c1nnc(NCC(C)(C)O)c2cc(C#N)ccc12 [Compound 007, 4-((2-hydroxy-2-methylpropyl)amino)-1-(2-hydroxy-6-methyl-4-(trifluoromethyl)phenyl) phthalazin-6-carbonitrile] | 29 nM |
| Cc1cc(Cl)cc(O)c1-c1nnc(NCC(C)(C)O)c2cc(-n3nccn3)ccc12 [Compound 028, 5-chloro-2-(4-((2-hydroxy-2-methylpropyl)amino)-6-(2H-1,2,3-triazol-2-yl)phthalazin-1-yl)-3-methylphenol] | 35 nM |
| CC#Cc1ccc2c(-c3ccc(Cl)cc3O)nnc(NCC(C)(C)O)c2c1 [Compound 036, 5-chloro-2-(4-((2-hydroxy-2-methylpropyl)amino)-6-(prop-1-yn-1-yl)phthalazin-1-yl)phenol] | 51 nM |
| CC(C)(O)CNc1nnc(-c2ccc(Cl)cc2O)c2ccc(C#N)cc12 [Compound 001, 1-(4-chloro-2-hydroxyphenyl)-4-((2-hydroxy-2-methylpropyl)amino) phthalazin-6-carbonitrile] | 88 nM |
| C[C@@H](C(N)=O)N1CCC[C@@H](Nc2nnc(-c3ccc(Cl)cc3O)c3ccncc23)C1 [Compound 016, (S)-2-((R)-3-((1-(4-chloro-2-hydroxyphenyl)pyrido[3,4-d]pyridazin-4-yl)amino)piperidin-1-yl) propionamide] | 11 nM |
| O=C(C1CC1)N1CCC[C@@H](Nc2nnc(-c3ccc(Cl)cc3O)c3ccncc23)C1 [Compound 006, (R)-(3-((1-(4-chloro-2-hydroxyphenyl)pyrido[3,4-d]pyridazin-4-yl)amino)piperidin-1-yl)(cyclopropyl)methanone] | 12 nM |
| NC(=O)N1CCC[C@@H](Nc2nnc(-c3ccc(Cl)cc3O)c3ccncc23)C1 [Compound 008, (R)-3-((1-(4-chloro-2-hydroxyphenyl)pyrido[3,4-d]pyridazin-4-yl)amino)piperidin-1-formamide] | 39 nM |

Other lines, results leading:

| IC50 | SMILES |
| --- | --- |
| 18 nM | CC#Cc1ccc2c(-c3ccc(C(F)(F)F)cc3O)nnc(NC[C@H](O)CO)c2c1 [Compound 056, (S)-3-((4-(2-hydroxy-4-(trifluoromethyl)phenyl)-7-(prop-1-yn-1-yl)phthalazin-1-yl)amino) propan-1,2-diol] |
| 51 nM | CC#Cc1ccc2c(-c3ccc(Cl)cc3O)nnc(N[C@@H]3CC(=O)N(CCO)C3)c2c1 [Compound 073, (R)-4-((4-(4-chloro-2-hydroxyphenyl)-7-(prop-1-yn-1-yl)phthalazin-1-yl)amino)-1-(2-hydroxyethyl)pyrrolidin-2-one] |
| 7.2 nM | CC#Cc1ccc2c(-c3ccc(Cl)cc3O)nnc(N[C@@H]3CCN(CCO)C3=O)c2c1 [Compound 074, (R)-3-((4-(4-chloro-2-hydroxyphenyl)-7-(prop-1-yn-1-yl)phthalazin-1-yl)amino)-1-(2-hydroxyethyl)pyrrolidin-2-one] |
| 23 nM | CC#Cc1ccc2c(-c3ccc(C(F)(F)F)cc3O)nnc(N[C@@H]3CCCC[C@H]3O)c2c1 [Compound 061, 2-(4-(((1R,2R)-2-hydroxycyclohexyl)amino)-6-(prop-1-yn-1-yl)phthalazin-1-yl)-5-(trifluoromethyl)phenol] |
| 46 nM | CCn1cc(-c2ccc3c(-c4c(C)cc(Cl)cc4O)nnc(NCC(C)(C)O)c3c2)cn1 [Compound 051, 5-chloro-2-(6-(1-ethyl-1H-pyrazol-4-yl)-4-((2-hydroxy-2-methylpropyl)amino)phthalazin-1-yl)-3-methylphenol] |
| 23 nM | CC#Cc1ccc2c(-c3c(O)cc(C(F)(F)F)cc3F)nnc(NC[C@H](C)O)c2c1 [Compound 071, 3-fluoro-2-(4-(((S)-2-hydroxypropyl)amino)-6-(prop-1-yn-1-yl)phthalazin-1-yl)-5-(trifluoromethyl)phenol] |
| 31 nM | CC#Cc1ccc2c(-c3ccc(C(F)(F)F)cc3O)nnc(NCC(C)(C)O)c2c1 [Compound 069, 2-(4-((2-hydroxy-2-methylpropyl)amino)-6-(prop-1-yn-1-yl)phthalazin-1-yl)-5-(trifluoromethyl)phenol] |
| 13 nM | CC#Cc1ccc2c(-c3ccc(C(F)(F)F)cc3O)nnc(N[C@H]3C[C@@](C)(O)C3)c2c1 [Compound 065, 2-(4-(((1S, 3S)-3-hydroxy-3-methylcyclobutyl)amino)-6-(prop-1-yn-1-yl)phthalazin-1-yl)-5-(trifluoromethyl)phenol] |
| 35 nM | CC#Cc1ccc2c(-c3ccc(Cl)cc3O)nnc(N[C@@H]3CCC(=O)N(CCO)C3)c2c1 [Compound 076, (R)-5-((4-(4-chloro-2-hydroxyphenyl)-7-(prop-1-yn-1-yl)phthalazin-1-yl)amino)-1-(2-hydroxyethyl) piperidin-2-one] |
| 34 nM | CC(C)(C(=O)NC1CC1)N1CCC[C@@H](Nc2nnc(-c3ccc(Cl)cc3O)c3ccncc23)C1 [Compound 043, (R)-2-(3-((1-(4-chloro-2-hydroxyphenyl)pyrido[3,4-d]pyridazin-4-yl)amino)piperidin-1-yl)-N-cyclopropyl-2-methylpropionamide] |
| 20 nM | CC#Cc1ccc2c(-c3c(O)cc(C(F)(F)F)cc3F)nnc(N[C@H]3C[C@@](C)(O)C3)c2c1 [Compound 066, 3-fluoro-2-(4-(((1S,3S)-3-hydroxy-3-methylcyclobutyl)amino)-6-(prop-1-yn-1-yl)phthalazin-1-yl)-5-(trifluoromethyl)phenol] |
| 66 nM | CC#Cc1ccc2c(-c3ccc(C(F)(F)F)cc3O)nnc(N[C@@H]3COCC[C@H]3O)c2c1 [Compound 067, (3R,4R)-3-((4-(2-hydroxy-4-(trifluoromethyl)phenyl)-7-(prop-1-yn-1-yl)phthalazin-1-yl)amino)tetrahydro-2H-pyran-4-ol] |
| 39 nM | CC#Cc1ccc2c(-c3ccc(C(F)(F)F)cc3O)nnc(N[C@@H]3CCCN(C)C3)c2c1 [Compound 068, (R)-2-(4-((1-methylpiperidin-3-yl)amino)-6-(prop-1-yn-1-yl)phthalazin-1-yl)-5-(trifluoromethyl)phenol] |
